Measurements taken from ChEMBL document CHEMBL2448688, “Selection and optimization of hits from a high-throughput phenotypic screen against Trypanosoma cruzi. Exported from HEOS 25-Oct-2013. See also related datasets CHEMBL3137440 and CHEMBL3137386”.
≈ marks a conversion by molar mass, not a printed value. Where “and” joins values, the source holds several entries; their conditions need not be identical. Identical values can stand only once.

Columns and labels:
[1] = DNDI: Cytotoxicity in vitro, against rat skeletal myoblast (L-6) cells; settings: L-6 cells (skeletal myoblasts), IC50
Trypanosoma cruzi [2] = experiment: (§1) DNDI: Chagas in Vitro; type: functional, organism-based, Tulahuen C4 (LacZ)
Trypanosoma cruzi [3] = experiment: as §1; type: functional, Tulahuen C4 (LacZ)
Cytochrome P450 3A4 = Cytochrome P450 3A4 (Homo sapiens, UniProt P08684); experiment: DNDI: Human CYP3A4 inhibition determined using 6b-hydroxylation of testosterone
[4] = DNDI: Solubility in phosphate buffer at pH 6.5 determined by nephelometry; settings: phosphate buffer, pH 6.5, Kinetic
in vitro [5] = settings: human, microsomes, t (1 / 2)
[6] = DNDI: Solubility in 0.01M HCl at pH 2 determined by nephelometry; settings: 0.01M HCl, pH 2, Kinetic
[7] = tested on: Trypanosoma brucei rhodesiense; experiment: DNDI: HAT in Vitro; type: functional, organism-based, ATCC 30027; settings: Trypanosoma brucei, ATCC 30027
in vitro [8] = settings: human, microsomes
[9] = DNDI: Lipophilicity (gLogD) at pH 7.4; settings: buffer, pH 7.4, logD
[10] = DNDI: Lipophilicity (gLogD) at pH 3; settings: buffer, pH 3, logD
in vitro [11] = settings: human, microsomes, EH
[12] = Trypanosoma cruzi, Tulahuen C4 (LacZ)

Sequence of Cytochrome P450 3A4 (P08684 whole entry): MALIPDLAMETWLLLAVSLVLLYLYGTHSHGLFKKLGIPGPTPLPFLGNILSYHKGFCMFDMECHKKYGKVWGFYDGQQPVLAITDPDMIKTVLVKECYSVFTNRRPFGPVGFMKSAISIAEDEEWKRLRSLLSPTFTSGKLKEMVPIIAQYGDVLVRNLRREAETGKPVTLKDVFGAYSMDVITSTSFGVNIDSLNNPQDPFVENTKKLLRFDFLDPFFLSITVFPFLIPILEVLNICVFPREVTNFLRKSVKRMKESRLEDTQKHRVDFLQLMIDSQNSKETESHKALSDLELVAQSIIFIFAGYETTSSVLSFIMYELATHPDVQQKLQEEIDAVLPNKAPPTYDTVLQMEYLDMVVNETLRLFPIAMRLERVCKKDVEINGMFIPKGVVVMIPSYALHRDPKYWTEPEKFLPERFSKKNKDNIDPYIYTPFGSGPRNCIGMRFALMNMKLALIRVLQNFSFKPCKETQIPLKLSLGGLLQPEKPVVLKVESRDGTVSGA

| IC50 (Trypanosoma cruzi [2]; [12]) [nM] | IC90 (Trypanosoma cruzi [3]; [12]) [nM] | IC50 (Cytochrome P450 3A4) [nM] | solubility kinetic [4] [µg/mL] | half-life (in vitro [5]) [min] | solubility kinetic [6] [µg/mL] | IC50 [7] [nM] | microsomal CLint (in vitro [8]) [µL/min/mg] | chromatographic logD [9] | chromatographic logD [10] | hepatic extraction ratio (in vitro [11]) | IC50 (Trypanosoma cruzi [2]) | IC90 (Trypanosoma cruzi [3]) | Structure (SMILES) | IC50 [1] [nM] |
| --- | --- | --- | --- | --- | --- | --- | --- | --- | --- | --- | --- | --- | --- | --- |
| 306 |  |  |  |  |  |  |  |  |  |  |  |  | O=C(NCCc1c[nH]cn1)c1ccc(-c2ccccc2)cc1 | > 100000 |
| > 1000 | > 1000 |  |  |  |  |  |  |  |  |  |  |  | CO/N=C(\C)c1ccc(-n2ccnc2)c(NC(=O)c2ccc(-c3ccccn3)cc2)c1 | > 100000 |
| 59.7 | > 100 |  |  |  |  |  |  |  |  |  |  |  | CS(=O)(=O)c1ccc(-n2ccnc2)c(NC(=O)c2cnc(-c3ccccc3)s2)c1 | > 100000 |
| 186 | > 1000 | 3280 | 48.2 (≈ 140 µM) | 105 | 64.3 (≈ 187 µM) | > 10000 | 16.5 |  |  |  |  |  | O=C(NCCc1cnc[nH]1)c1ccc2cc(Br)ccc2c1 | 59700 |
|  |  | 16000 |  | > 250 | > 100 | > 10000 | < 7 | 2.1 | 1.3 | < 0.23 |  |  | O=C(NCCc1cnc[nH]1)c1cnc(-c2ccccc2)cn1 |  |
|  |  | 1000 | < 1.6 | 11 | > 100 | > 10000 | 159 | 4.9 | 4.1 | 0.86 |  |  | CCN(Cc1cccnc1)c1cccc(-c2nc3ccccc3s2)c1 | 41900 |
| 29 | > 100 |  |  | 5 | > 100 | > 10000 | 380 | 4 | 3.4 |  |  |  | O=C(C1CC1)N(Cc1cccnc1)c1cccc(-c2nc3ccccc3s2)c1 | 60600 |
| 13 | 87 | 10000 |  | 22 | > 100 | > 10000 | 79 | 3 | 2.4 | 0.75 |  |  | CN(C)S(=O)(=O)c1ccc(-n2ccnc2)c(NC(=O)c2cnc(-c3ccccc3)s2)c1 | > 100000 |
| 23 | 58.5 | < 250 |  | 5 | > 100 | > 10000 | 346 | 3.6 | 3.2 | 0.93 |  |  | CCS(=O)(=O)N(Cc1cccnc1)c1cccc(-c2nc3ccccc3s2)c1 | > 100000 |
| 2.7 | 9.5 | 1400 |  | 17 | > 100 |  | 102 | 3.2 | 2.4 | 0.8 |  |  | CO/N=C(\C)c1ccc(-n2ccnc2)c(NC(=O)c2ccc(-c3cccs3)nc2)c1 | > 100000 |
| 12.9 | 34 |  |  |  |  |  |  |  |  |  |  |  | O=C(C1CC1)N(Cc1cccnc1)c1cncc(-c2nc3ccccc3s2)c1 |  |
| 13.5 | 355 | 1040 | 13 (≈ 31.8 µM) | 3.1 | > 82.1 |  | 559 | 3.19 | 1.89 | 0.965 |  |  | CCS(=O)(=O)N(Cc1cccnc1)c1cncc(-c2nc3ccccc3s2)c1 | > 100000 |
| 4.9 | 10 |  |  |  |  |  |  |  |  |  | 3.2 nM and 3.8 nM |  | O=C(Nc1ccccc1-n1ccnc1)c1cnc(-c2ccccc2)s1 |  |
|  |  |  |  |  |  |  |  |  |  |  |  |  | CO/N=C(\C)c1ccc(-n2ccnc2)c(NC(=O)c2cc(-c3ccccc3)cs2)c1 | > 100000 |
| 47 | 98 | 775 | < 0.36 | 9.7 | 57.2 (≈ 157 µM) |  | 179 | > 4.5 | 3.75 | 0.898 |  |  | CCN(Cc1cccnc1)c1cc(F)cc(-c2nc3ccccc3s2)c1 | 57700 |
| 20 | 62.5 |  | 6.65 (≈ 16.5 µM) | 1.3 | 66.9 (≈ 166 µM) |  | 1320 | 4.49 | 3.04 |  |  |  | O=C(C1CC1)N(Cc1cccnc1)c1cc(F)cc(-c2nc3ccccc3s2)c1 | 76900 |
| 67.5 | 204 |  |  | 97 | > 100 |  | 18 | 3.5 | 2.3 |  |  |  | CO/N=C(\C)c1ccc(-n2ccnc2)c(NC(=O)c2sc(-c3ccccc3)nc2C)c1 | > 100000 |
| 40.5 | 91 |  |  |  |  |  |  |  |  |  |  |  | CS(=O)(=O)N(Cc1cccnc1)c1ccc(-c2nc3ccccc3s2)cc1 | > 100000 |
| 351 | 632 |  |  |  |  |  |  |  |  |  |  |  | CCN(Cc1cccnc1)c1ccc(-c2nc3ccccc3s2)cc1 | 54500 |
| 17 | 82.5 | 1000 | < 0.32 | 21.5 | 59.5 (≈ 183 µM) |  | 80.5 | > 4.5 | 3.49 | 0.799 |  |  | CCN(Cc1cccnc1)c1ccc(-c2ccc(F)cc2)cc1F | 56300 |
| 53.5 | 184 |  |  |  |  |  |  |  |  |  |  |  | CC(=O)N(Cc1cccnc1)c1ccc(-c2ccc(F)cc2)cc1F |  |
| 1.98 | 15 |  |  | 16 | > 100 |  | 109 | 3 | 1.8 |  |  |  | Cc1ccc(-n2ccnc2)c(NC(=O)c2cnc(-c3ccccc3)s2)c1 | 86600 |
| 2 |  | 612 | 8.62 (≈ 23 µM) | 7.9 | > 74.9 |  | 218 | 3.18 | 1.89 | 0.916 | 1 nM | 14.6 nM and 6 nM | CS(=O)(=O)N(Cc1cccnc1)c1ccc(-c2ccc(F)cc2)cc1F |  |
| 51 |  | 576 | 3.1 (≈ 8.8 µM) | 12.4 | > 70.5 |  | 138 | 4.67 | 1.98 | 0.874 | 48 nM | 51 nM and 110 nM | CCN(Cc1cnc[nH]1)c1cc(F)cc(-c2nc3ccccc3s2)c1 |  |
| 17 |  |  |  |  |  |  |  |  |  |  |  | 64 nM and 625 nM | NCC(=O)N(Cc1cccnc1)c1ccc(-c2nc3ccccc3s2)cc1 |  |
| 486 | 941 |  |  |  |  |  |  |  |  |  | 534 nM | > 1000 nM | CC(=O)N(Cc1cnc[nH]1)c1cc(F)cc(-c2nc3ccccc3s2)c1 | > 100000 |
| < 0.14 |  |  | < 1.6 | 11 | > 100 |  | 157 | 3.9 | 2.8 |  | 0.22 nM and 0.2 nM and 0.19 nM |  | CC(C)Cc1ccc(-n2ccnc2)c(NC(=O)c2cnc(-c3ccccc3)s2)c1 |  |
|  |  |  |  |  |  |  |  |  |  |  |  |  | CC(=O)N(Cc1c[nH]cn1)c1ccc(-c2ccc(F)cc2)cc1F | 69900 |
